Test results published in publication PMC6986443, “T‐495, a novel low cooperative M1 receptor positive allosteric modulator, improves memory deficits associated with cholinergic dysfunction and is characterized by low gastrointestinal side effect risk” (Pharmacology Research & Perspectives, 2020).

Key:
Assay in all cases: Selectivity panel
Type in all cases: binding
Adenosine A2B = molecular target: T1, Adenosine A2B (Homo sapiens, UniProt P29275)
T1 construct: purchased Eurofins Panlabs Taiwan Ltd
Text: (§1) The selectivity of T‐495 at 10 μmol/L against a panel of 106 targets, including receptors, enzymes, ion channels, and transporters, was characterized (Eurofins Panlabs Taiwan Ltd., Taipei, Taiwan).

[1] = test system: Adrenergic α1, non-selective
Text: as §1

[2] = test system: Adrenergic α2, non-selective
Text: as §1

Adrenergic β1 = molecular target: T2, Adrenergic β1 (Homo sapiens, UniProt P08588)
T2 construct: purchased Eurofins Panlabs Taiwan Ltd
Text: as §1

Adrenergic β3 = molecular target: T3, Adrenergic β3 (Homo sapiens, UniProt P13945)
T3 construct: purchased Eurofins Panlabs Taiwan Ltd
Text: as §1

Androgen (testosterone) = test system: Androgen (testosterone)
Text: as §1

Angiotensin AT1 = molecular target: T4, Angiotensin AT1 (Homo sapiens, UniProt P30556)
T4 construct: purchased Eurofins Panlabs Taiwan Ltd
Text: as §1

Bradykinin B1 = molecular target: T5, Bradykinin B1 (Homo sapiens, UniProt P46663)
T5 construct: purchased Eurofins Panlabs Taiwan Ltd
Text: as §1

Bradykinin B2 = molecular target: T6, Bradykinin B2 (Homo sapiens, UniProt P30411)
T6 construct: purchased Eurofins Panlabs Taiwan Ltd
Text: as §1

[3] = test system: Calcium channel L-type, benzothiazepine
Text: as §1

[4] = test system: Calcium channel L-type, phenylalkylamine
Text: as §1

Calcium channel N-type = molecular target: T7, Calcium channel N-type (Rattus norvegicus, UniProt Q02294)
T7 construct: purchased Eurofins Panlabs Taiwan Ltd
Text: as §1

Cannabinoid CB2 = molecular target: T8, Cannabinoid CB2 (Homo sapiens, UniProt P34972)
T8 construct: purchased Eurofins Panlabs Taiwan Ltd
Text: as §1

Dopamine D2L = molecular target: T9, Dopamine D2L (Homo sapiens, UniProt P14416)
T9 construct: purchased Eurofins Panlabs Taiwan Ltd
Text: as §1

Dopamine D3 = molecular target: T10, Dopamine D3 (Homo sapiens, UniProt P35462)
T10 construct: purchased Eurofins Panlabs Taiwan Ltd
Text: as §1

Dopamine D4.2 = test system: Dopamine D4.2
Text: as §1

Endothelin ETA = molecular target: T11, Endothelin ETA (Homo sapiens, UniProt P25101)
T11 construct: purchased Eurofins Panlabs Taiwan Ltd
Text: as §1

[5] = test system: Estrogen Receptor (non-selective)
Text: as §1

GABAA, chloride channel = test system: GABAA, chloride channel
Text: as §1

[6] = test system: GABAA, flunitrazepam, central
Text: as §1

GABAB1A = molecular target: T12, GABAB1A (Homo sapiens, UniProt Q9UBS5)
T12 construct: purchased Eurofins Panlabs Taiwan Ltd
Text: as §1

GABAB1B = molecular target: T13, GABAB1B (Homo sapiens, UniProt Q9UBS5)
T13 construct: purchased Eurofins Panlabs Taiwan Ltd
Text: as §1

Glucocorticoid = molecular target: T14, Glucocorticoid (Homo sapiens, UniProt P04150)
T14 construct: purchased Eurofins Panlabs Taiwan Ltd
Text: as §1

Glutamate, AMPA = test system: Glutamate, AMPA
Text: as §1

Glutamate, NMDA, glycine = test system: Glutamate, NMDA, glycine
Text: as §1

[7] = test system: Glutamate, NMDA, phencyclidine
Text: as §1

Glutamate, NMDA = test system: Glutamate, NMDA
Text: as §1

[8] = molecular target: T15, Growth hormone secretagogue (ghrelin) (Homo sapiens, UniProt Q92847)
T15 construct: purchased Eurofins Panlabs Taiwan Ltd
Text: as §1

Histamine H2 = molecular target: T16, Histamine H2 (Homo sapiens, UniProt P25021)
T16 construct: purchased Eurofins Panlabs Taiwan Ltd
Text: as §1

IP (PGI2) = molecular target: T17, IP (PGI2) (Homo sapiens, UniProt P43119)
T17 construct: purchased Eurofins Panlabs Taiwan Ltd
Text: as §1

Imidazoline I2, central = test system: Imidazoline I2, central
Text: as §1

Melatonin MT1 = molecular target: T18, Melatonin MT1 (Homo sapiens, UniProt P48039)
T18 construct: purchased Eurofins Panlabs Taiwan Ltd
Text: as §1

Muscarinic M3 = molecular target: T19, Muscarinic M3 (Homo sapiens, UniProt P20309)
T19 construct: purchased Eurofins Panlabs Taiwan Ltd
Text: as §1

Nicotinic acetylcholine = test system: Nicotinic acetylcholine
Text: as §1

Opiate κ (OP2, KOP) = molecular target: T20, Opiate κ (OP2, KOP) (Homo sapiens, UniProt P41145)
T20 construct: purchased Eurofins Panlabs Taiwan Ltd
Text: as §1

Potassium channel (KATP) = test system: Potassium channel (KATP)
Text: as §1

Serotonin 5-HT1A = molecular target: T21, Serotonin 5-HT1A (Homo sapiens, UniProt P08908)
T21 construct: purchased Eurofins Panlabs Taiwan Ltd
Text: as §1

Serotonin 5-HT2B = molecular target: T22, Serotonin 5-HT2B (Homo sapiens, UniProt P41595)
T22 construct: purchased Eurofins Panlabs Taiwan Ltd
Text: as §1

Serotonin 5-HT3 = molecular target: T23, Serotonin 5-HT3 (Homo sapiens, UniProt P46098)
T23 construct: purchased Eurofins Panlabs Taiwan Ltd
Text: as §1

Serotonin 5-HT4 = test system: Serotonin 5-HT4
Text: as §1

Sigma, non-selective = test system: Sigma, non-selective
Text: as §1

Sodium channel, Site 2 = test system: Sodium channel, Site 2
Text: as §1

Tachykinin NK1 = molecular target: T24, Tachykinin NK1 (Homo sapiens, UniProt P25103)
T24 construct: purchased Eurofins Panlabs Taiwan Ltd
Text: as §1

Tachykinin NK3 = molecular target: T25, Tachykinin NK3 (Homo sapiens, UniProt P29371)
T25 construct: purchased Eurofins Panlabs Taiwan Ltd
Text: as §1

[9] = molecular target: T26, Transporter, norepinephrine (NET) (Homo sapiens, UniProt P23975)
T26 construct: purchased Eurofins Panlabs Taiwan Ltd
Text: as §1

[10] = molecular target: T27, Transporter, serotonin (SERT) (Homo sapiens, UniProt P31645)
T27 construct: purchased Eurofins Panlabs Taiwan Ltd
Text: as §1

T14 sequence (P04150 whole entry): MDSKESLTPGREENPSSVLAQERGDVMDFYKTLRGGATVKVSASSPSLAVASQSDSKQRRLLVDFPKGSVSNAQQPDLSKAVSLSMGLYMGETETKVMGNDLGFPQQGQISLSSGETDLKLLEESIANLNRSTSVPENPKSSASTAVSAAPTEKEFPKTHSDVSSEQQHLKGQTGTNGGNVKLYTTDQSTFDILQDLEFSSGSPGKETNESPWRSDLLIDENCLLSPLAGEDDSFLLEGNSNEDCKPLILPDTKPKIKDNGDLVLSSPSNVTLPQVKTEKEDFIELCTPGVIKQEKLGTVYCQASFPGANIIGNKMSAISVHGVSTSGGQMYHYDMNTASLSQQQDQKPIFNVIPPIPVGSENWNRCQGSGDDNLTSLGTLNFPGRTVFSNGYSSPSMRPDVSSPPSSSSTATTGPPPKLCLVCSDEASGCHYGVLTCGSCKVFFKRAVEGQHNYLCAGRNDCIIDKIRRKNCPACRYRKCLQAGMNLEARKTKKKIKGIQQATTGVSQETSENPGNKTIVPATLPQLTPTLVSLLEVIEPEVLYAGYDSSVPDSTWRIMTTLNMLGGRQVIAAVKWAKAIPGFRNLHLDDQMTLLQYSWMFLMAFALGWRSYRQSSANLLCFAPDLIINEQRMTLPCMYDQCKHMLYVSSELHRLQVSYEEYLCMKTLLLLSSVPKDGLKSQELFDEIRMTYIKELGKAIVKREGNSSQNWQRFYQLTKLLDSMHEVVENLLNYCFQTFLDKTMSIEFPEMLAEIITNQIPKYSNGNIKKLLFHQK
T18 sequence (P48039 whole entry): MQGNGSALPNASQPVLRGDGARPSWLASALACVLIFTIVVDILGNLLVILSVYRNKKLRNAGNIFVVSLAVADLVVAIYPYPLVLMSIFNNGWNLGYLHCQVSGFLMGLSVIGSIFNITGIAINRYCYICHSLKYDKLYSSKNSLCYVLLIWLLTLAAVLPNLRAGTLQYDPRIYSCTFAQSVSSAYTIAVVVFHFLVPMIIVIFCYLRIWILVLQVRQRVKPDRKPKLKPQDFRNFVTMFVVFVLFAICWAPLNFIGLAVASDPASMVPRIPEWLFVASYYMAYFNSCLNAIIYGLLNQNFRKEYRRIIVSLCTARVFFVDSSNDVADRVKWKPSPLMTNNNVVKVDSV
T17 sequence (P43119 whole entry): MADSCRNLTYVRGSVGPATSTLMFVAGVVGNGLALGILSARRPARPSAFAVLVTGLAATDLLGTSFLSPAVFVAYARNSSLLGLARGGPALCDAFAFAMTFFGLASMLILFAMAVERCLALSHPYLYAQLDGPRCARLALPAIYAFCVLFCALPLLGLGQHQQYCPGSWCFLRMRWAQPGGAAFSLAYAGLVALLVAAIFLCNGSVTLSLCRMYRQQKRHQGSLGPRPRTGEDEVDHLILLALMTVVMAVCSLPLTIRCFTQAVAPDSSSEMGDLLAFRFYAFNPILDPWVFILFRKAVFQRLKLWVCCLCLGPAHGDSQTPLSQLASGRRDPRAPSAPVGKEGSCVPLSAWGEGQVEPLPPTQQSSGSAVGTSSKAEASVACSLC
T7 sequence (Q02294 whole entry): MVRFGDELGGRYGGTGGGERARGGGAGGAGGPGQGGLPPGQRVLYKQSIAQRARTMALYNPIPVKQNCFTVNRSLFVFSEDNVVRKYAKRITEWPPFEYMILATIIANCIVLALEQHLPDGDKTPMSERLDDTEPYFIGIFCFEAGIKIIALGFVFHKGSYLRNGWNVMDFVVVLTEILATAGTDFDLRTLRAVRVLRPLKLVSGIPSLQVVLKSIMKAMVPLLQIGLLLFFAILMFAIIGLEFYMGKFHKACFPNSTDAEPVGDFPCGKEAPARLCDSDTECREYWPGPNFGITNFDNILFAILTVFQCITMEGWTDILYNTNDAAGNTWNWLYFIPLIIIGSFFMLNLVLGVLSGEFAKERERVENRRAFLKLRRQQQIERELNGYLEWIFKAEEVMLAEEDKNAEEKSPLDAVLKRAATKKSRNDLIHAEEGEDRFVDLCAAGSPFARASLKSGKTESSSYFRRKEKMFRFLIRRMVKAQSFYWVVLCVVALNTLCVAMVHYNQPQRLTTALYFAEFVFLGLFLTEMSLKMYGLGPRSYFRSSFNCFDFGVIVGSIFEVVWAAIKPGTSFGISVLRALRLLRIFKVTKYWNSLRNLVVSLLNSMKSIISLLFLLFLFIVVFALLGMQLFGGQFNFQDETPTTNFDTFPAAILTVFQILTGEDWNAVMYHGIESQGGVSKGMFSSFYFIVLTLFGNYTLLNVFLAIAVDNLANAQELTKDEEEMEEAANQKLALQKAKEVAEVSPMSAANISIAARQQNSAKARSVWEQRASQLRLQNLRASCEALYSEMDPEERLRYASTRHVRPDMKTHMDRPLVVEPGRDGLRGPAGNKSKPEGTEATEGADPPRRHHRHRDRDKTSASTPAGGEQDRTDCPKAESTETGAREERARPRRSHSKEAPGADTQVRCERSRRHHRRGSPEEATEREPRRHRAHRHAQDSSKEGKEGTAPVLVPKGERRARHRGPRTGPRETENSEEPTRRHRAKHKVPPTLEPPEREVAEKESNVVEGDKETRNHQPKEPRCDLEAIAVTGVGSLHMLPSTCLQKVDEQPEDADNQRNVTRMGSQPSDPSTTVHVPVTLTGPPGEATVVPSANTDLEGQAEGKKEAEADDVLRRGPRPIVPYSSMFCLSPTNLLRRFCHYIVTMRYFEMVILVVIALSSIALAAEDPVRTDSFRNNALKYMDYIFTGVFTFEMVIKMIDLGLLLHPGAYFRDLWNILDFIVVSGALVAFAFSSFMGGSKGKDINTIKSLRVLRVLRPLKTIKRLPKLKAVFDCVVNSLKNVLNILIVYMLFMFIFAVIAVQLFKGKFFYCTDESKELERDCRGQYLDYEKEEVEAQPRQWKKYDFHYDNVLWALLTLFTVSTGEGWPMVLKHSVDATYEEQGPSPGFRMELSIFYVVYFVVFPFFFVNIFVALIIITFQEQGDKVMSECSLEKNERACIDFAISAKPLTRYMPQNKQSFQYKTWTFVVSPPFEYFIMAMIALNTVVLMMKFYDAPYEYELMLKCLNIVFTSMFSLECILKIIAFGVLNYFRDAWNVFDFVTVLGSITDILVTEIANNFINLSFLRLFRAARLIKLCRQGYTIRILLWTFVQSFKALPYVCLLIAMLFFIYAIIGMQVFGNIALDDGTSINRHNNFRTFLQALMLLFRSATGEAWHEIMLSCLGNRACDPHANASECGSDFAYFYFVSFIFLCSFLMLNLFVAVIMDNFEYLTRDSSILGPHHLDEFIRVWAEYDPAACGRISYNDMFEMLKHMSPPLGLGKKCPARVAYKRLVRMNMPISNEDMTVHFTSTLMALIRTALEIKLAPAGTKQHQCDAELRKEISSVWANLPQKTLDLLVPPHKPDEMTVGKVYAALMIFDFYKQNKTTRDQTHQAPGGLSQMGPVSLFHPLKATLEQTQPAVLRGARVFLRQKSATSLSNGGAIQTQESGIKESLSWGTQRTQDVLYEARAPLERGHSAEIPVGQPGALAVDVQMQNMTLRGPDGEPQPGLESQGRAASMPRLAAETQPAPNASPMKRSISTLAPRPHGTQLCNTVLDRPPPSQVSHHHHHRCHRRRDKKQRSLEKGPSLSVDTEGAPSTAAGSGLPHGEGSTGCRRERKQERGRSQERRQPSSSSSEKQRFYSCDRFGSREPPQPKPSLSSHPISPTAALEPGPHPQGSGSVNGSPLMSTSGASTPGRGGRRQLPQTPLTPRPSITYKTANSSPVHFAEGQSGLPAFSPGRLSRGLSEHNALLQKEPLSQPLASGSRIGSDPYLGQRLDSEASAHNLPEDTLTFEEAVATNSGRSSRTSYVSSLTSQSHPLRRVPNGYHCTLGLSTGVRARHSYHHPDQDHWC
T19 sequence (P20309 whole entry): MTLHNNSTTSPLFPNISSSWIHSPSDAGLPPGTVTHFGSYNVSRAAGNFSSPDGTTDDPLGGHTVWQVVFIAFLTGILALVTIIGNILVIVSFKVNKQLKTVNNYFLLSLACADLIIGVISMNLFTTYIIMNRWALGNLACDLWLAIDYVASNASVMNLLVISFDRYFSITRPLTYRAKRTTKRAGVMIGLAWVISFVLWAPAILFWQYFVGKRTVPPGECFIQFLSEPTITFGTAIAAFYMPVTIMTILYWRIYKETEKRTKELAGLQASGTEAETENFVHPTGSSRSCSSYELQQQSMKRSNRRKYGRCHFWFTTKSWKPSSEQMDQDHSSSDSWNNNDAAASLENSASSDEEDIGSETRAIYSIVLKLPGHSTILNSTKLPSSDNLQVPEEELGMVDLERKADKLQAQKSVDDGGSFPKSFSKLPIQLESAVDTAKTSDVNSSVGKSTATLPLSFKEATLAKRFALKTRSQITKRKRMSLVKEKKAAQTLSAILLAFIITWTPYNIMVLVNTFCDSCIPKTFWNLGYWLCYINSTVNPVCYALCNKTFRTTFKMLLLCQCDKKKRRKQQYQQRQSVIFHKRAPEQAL
T27 sequence (P31645 whole entry): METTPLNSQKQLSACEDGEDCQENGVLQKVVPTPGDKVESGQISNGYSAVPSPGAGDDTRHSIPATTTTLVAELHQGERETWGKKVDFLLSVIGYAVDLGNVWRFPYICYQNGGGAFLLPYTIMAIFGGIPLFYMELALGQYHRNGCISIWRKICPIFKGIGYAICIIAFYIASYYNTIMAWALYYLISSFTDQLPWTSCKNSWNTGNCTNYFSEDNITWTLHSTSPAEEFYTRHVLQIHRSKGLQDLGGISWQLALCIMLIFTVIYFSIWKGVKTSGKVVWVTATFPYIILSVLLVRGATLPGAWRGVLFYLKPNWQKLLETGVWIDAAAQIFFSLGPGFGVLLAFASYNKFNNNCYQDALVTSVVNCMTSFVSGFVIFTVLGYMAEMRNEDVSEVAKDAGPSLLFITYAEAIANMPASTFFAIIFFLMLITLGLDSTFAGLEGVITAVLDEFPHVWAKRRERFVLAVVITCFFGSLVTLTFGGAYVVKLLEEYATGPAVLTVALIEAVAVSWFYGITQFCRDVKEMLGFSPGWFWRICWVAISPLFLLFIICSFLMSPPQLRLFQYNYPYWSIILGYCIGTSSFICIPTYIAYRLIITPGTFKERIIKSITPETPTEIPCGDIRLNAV

## Cc1c(Cc2ccc(Cl)nc2)cc2c(c1Cl)OCN([C@H]1CCC[C@@H]1O)C2=O [T‐495, 8‐chloro‐6‐((6‐chloropyridin‐3‐yl)methyl)‐3‐((1S,2S)‐2‐hydroxycyclopentyl)‐7‐methyl‐2,3‐dihydro‐4H‐1,3‐benzoxazin‐4‐one]
Adenosine A2B
  inhibition at 10 µM: 7%
[1]
  % inhibition at 10 μM: 11%
[2]
  % inhibition at 10 μM: 26%
Adrenergic β1
  inhibition at 10 µM: 4%
Adrenergic β3
  inhibition at 10 µM: 7%
Androgen (testosterone)
  % inhibition at 10 μM: 3%
Angiotensin AT1
  inhibition at 10 µM: 23%
Bradykinin B1
  inhibition at 10 µM: 2%
Bradykinin B2
  inhibition at 10 µM: -4%
[3]
  % inhibition at 10 μM: -5%
[4]
  % inhibition at 10 μM: 19%
Calcium channel N-type
  inhibition at 10 µM: 0%
Cannabinoid CB2
  inhibition at 10 µM: 12%
Dopamine D2L
  inhibition at 10 µM: 4%
Dopamine D3
  inhibition at 10 µM: -3%
Dopamine D4.2
  % inhibition at 10 μM: 3%
Endothelin ETA
  inhibition at 10 µM: -4%
[5]
  % inhibition at 10 μM: 5%
GABAA, chloride channel
  % inhibition at 10 μM: 45%
[6]
  % inhibition at 10 μM: 12%
GABAB1A
  inhibition at 10 µM: 5%
GABAB1B
  inhibition at 10 µM: 6%
Glucocorticoid
  inhibition at 10 µM: 25%
Glutamate, AMPA
  % inhibition at 10 μM: 20%
Glutamate, NMDA, glycine
  % inhibition at 10 μM: 15%
[7]
  % inhibition at 10 μM: 3%
Glutamate, NMDA
  % inhibition at 10 μM: 14%
[8]
  inhibition at 10 µM: 8%
Histamine H2
  inhibition at 10 µM: 22%
IP (PGI2)
  inhibition at 10 µM: 16%
Imidazoline I2, central
  % inhibition at 10 μM: 76%
Melatonin MT1
  inhibition at 10 µM: 29%
Muscarinic M3
  inhibition at 10 µM: 20%
Nicotinic acetylcholine
  % inhibition at 10 μM: -4%
Opiate κ (OP2, KOP)
  inhibition at 10 µM: 14%
Potassium channel (KATP)
  % inhibition at 10 μM: 2%
Serotonin 5-HT1A
  inhibition at 10 µM: 8%
Serotonin 5-HT2B
  inhibition at 10 µM: 28%
Serotonin 5-HT3
  inhibition at 10 µM: -3%
Serotonin 5-HT4
  % inhibition at 10 μM: 22%
Sigma, non-selective
  % inhibition at 10 μM: 25%
Sodium channel, Site 2
  % inhibition at 10 μM: 1%
Tachykinin NK1
  inhibition at 10 µM: -2%
Tachykinin NK3
  inhibition at 10 µM: 5%
[9]
  inhibition at 10 µM: 17%
[10]
  inhibition at 10 µM: 17%
